For 4 compounds, IC50, LC50 and Activity results are on record in ChEMBL document CHEMBL1142642, “Hermitamides A and B, toxic malyngamide-type natural products from the marine cyanobacterium Lyngbya majuscula” (J Nat Prod, 2000).

The nature of series [1]: Cytotoxicity against mouse Neuro2a cells after 24 hrs by MTT assay. The settings on record: N2a. The class given is cell-based. A general note: Tetrazolium assays rely on reduction of a dye to a coloured formazan, in cell work by metabolically active cells.
A short description of series [2]: Toxicity in Artemia salina. Format: organism-based. The following applies: in vivo, read-out: LD50 (the source's name).
Series [3] can be described thus: Ichthyotoxicity to gold fish. Format: organism-based. The settings on record: carassius auratus, in vivo; read-out: LD50 (the source's name).
Series [4] concerns Biomphalaria glabrata. Kind of series: Molluscicidal activity against Biomphalaria glabrata at 10 ppm. Format: organism-based. The settings on record: in vivo.

Where only a bound is given, the exact number is not on record here.

What is called IC50 is the point on the concentration scale where inhibition reaches its midpoint. High values mean a need for much substance, low ones inhibition by little substance. For the compound `CCCCCCC[C@@H](C/C=C/CCC(=O)NCCc1ccccc1)OC` [HERMITAMIDE A], in series [1], half-maximal inhibition (IC50) was put at 2.2 µM. For the same compound, the LC50 came out at 5 µM in series [2] and 19 µM in series [3]. Besides, the Activity result in series [4] is given as “Not Active”.
As to `CCCCCCC[C@@H](C/C=C/CCC(=O)NCCc1c[nH]c2ccccc12)OC` [HERMITAMIDE B], it took 5.5 µM to reach half-maximal inhibition in series [1] (IC50). The LC50 in series [2] amounted to 18 µM; in series [3], 25 µM. Moreover, the Activity result in series [4] is listed as “Not Active”.
As for `CCCCCCC[C@@H](C/C=C/CCC(=O)N(C)C/C(=C/Cl)c1cccc(C)c1O)OC` [MALYNGAMIDE M], the IC50 in series [1] is above 20 µM.
The same measure, in the same setting: to `CCCCCCC[C@@H](C/C=C/CCC(=O)N(C)C/C(=C/Cl)[C@]12O[C@H]1CC=C(C)C2=O)OC` [MALYNGAMIDE N] belongs 12 µM.
